# Experimental data reported in ChEMBL document CHEMBL1821657, “Tritoniopsins A-D, cladiellane-based diterpenes from the South China Sea nudibranch Tritoniopsis elegans and its prey Cladiella krempfi” (J Nat Prod, 2011).
# pIC50: −log10 of the molar value. Calls of active or inactive are those of the source. The calls are words filed in the database; no cut-off is given here.
# What was measured:
# HeLa = assay: Cytotoxicity against human HeLa cells assessed as cell growth inhibition after 48 hrs; format: functional, cell-based
# 3T3-L1 = assay: Cytotoxicity against mouse 3T3L1 cells assessed as cell growth inhibition after 48 hrs; format: cell-based; conditions: 3T3-L1, 48 h
# Caco-2 = assay: Cytotoxicity against human Caco2 cells assessed as cell growth inhibition after 48 hrs; format: functional, cell-based; conditions: Caco-2, 48 h
# C6 = assay: Cytotoxicity against rat C6 cells assessed as cell growth inhibition after 48 hrs; format: functional, cell-based
# H9c2 = assay: Cytotoxicity against rat H9c2 cells assessed as cell growth inhibition after 48 hrs; format: cell-based; conditions: H9c2, 48 h
structure (smiles),measurement,setting,value
C=C1C[C@H]2O[C@H]([C@@H]3[C@@H]4C[C@@H](OC[C@@H]4C)[C@](C)(O)[C@@H]32)[C@](C)(OC(=O)CCC)CC[C@@H]1OO [TRITONIOPSIN B],growth inhibition (GI),HeLa,inactive
same,pIC50,3T3-L1,4.40
same,pIC50,Caco-2,4.40
same,growth inhibition (GI),C6,inactive
same,pIC50,H9c2,4.40
